Experiments:
[1] = system: locus coeruleus (LC) neurons; test: Whole-cell recordings from locus coeruleus neurons in acute brain slices, local perfusion or UV uncaging; type: cell-based, rat
[2] = biological target: human kappa opioid receptors (OPRK1) (Homo sapiens, UniProt P41145); type: cell-based
[3] = system: CA1 region of the hippocampus; test: Extracellular field potential recordings (population spike) in acute hippocampal slices, UV uncaging; type: cell-based, mice
Description: Preliminary electrophysiological evaluation was carried out in transverse hippocampal slices from P15-18 mice and focused on inhibitory neurons, the predominant cells expressing Mu and Delta opioid receptors in the CA1 region. Initial neurophysiological evaluations were carried out in acute hippocampal slices from P24-30 mice. […] Extracellular field potential recordings reveal this as an increase in the population spike (pSpike) amplitude in response to Schaeffer collateral stimulation at 0.1 Hz. […] These experiments confirmed that photolysis in living tissue elicits a physiological response.

Chain of human kappa opioid receptors (OPRK1) (P41145 whole entry, looked up): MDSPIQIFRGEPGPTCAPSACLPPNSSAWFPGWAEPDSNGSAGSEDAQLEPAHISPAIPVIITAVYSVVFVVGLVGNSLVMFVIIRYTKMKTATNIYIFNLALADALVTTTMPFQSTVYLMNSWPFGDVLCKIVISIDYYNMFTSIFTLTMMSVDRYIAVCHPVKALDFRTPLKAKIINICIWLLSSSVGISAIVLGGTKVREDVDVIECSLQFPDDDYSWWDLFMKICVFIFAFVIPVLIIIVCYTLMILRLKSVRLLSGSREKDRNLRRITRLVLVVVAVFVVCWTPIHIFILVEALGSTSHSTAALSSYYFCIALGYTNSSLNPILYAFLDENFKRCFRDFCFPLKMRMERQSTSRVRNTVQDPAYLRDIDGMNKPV

Compound: Nc1ccncc1 [4-AP]
- effect on residual Ba^2+-insensitive outward current [1]: unable to block or occlude

Compound: [Ba+2].[Cl-].[Cl-] [Ba^2+, BaCl2]
- outward current blocked [1]: 80%

Compound: [Cl][Cd][Cl] [Cd^2+, CdCl2]
- effect on residual Ba^2+-insensitive outward current [1]: unable to block or occlude

Compound: CC(C)C[C@H](NC(=O)[C@H](Cc1ccccc1)NC(=O)CNC(=O)CNC(=O)[C@@H](N)Cc1ccc(O)cc1)C(=O)O [L-Enk, Leu-Enkephalin]
- activation of kappa receptors [2]: did not activate

Compound: CC1(C)[C@@H](OC(=O)CCC(=O)O)CC[C@]2(C)[C@H]3C(=O)C=C4[C@@H]5C[C@@](C)(C(=O)O)CC[C@]5(C)CC[C@@]4(C)[C@]3(C)CC[C@@H]12 [carbenoxolone]
- effect on responses to the uncaging stimuli ([1]; 100 uM, n=10 cells): not significantly attenuated

Compound: C=CCN1CC[C@]23c4c5ccc(O)c4O[C@H]2C(=O)CC[C@@]3(O)[C@H]1C5 [naloxone]
- effect on light-evoked outward current ([1]; 2 μM, uncaging of 10 μM CYLE): blocked
- effect on light-evoked pSpike increases [3]: blocked

Compound: ZD7288
- effect on residual Ba^2+-insensitive outward current [1]: unable to block or occlude

— patent publication US20120136416A1, “Caged Neuropeptides: modulation and measurement of synapse and signaling activity; and methods for drug evaluation, pharmaceuticals preparation and treatment” (PRESIDENT AND FELLOWS OF HARVARD COLLEGE, priority 2010, published 2012)
